Where a name gives a salt, the structure may show the parent alone.
Columns and labels:
[1] = test system: bacterial strains that express the class D cephalosporinase OXA-15; experiment: Synergy MIC / standard BLI potentiation MIC assay, strains expressing OXA-15; assay type: cell-based, E. coli; conditions: in the presence of a β-lactam; comparator Avibactam (CCC)
Protocol: (§1) The experimental protocol was performed according to Clinical and Laboratory Standards Institute (CLSI) guidelines with modifications as described below (CLSI guidelines can be derived from the CLSI document M07-A9 published in January 2012: “Methods for Dilution Antimicrobial Susceptibility Tests for Bacteria That Grow Aerobically; Approved Standard-Ninth Edition”).
(§2) To prepare for MIC testing, frozen glycerol stocks of clinical isolates (Klebsiella pneumoniae, Eschericia coli, Enterobacter spp, Citrobacter spp, or Pseudomonas aeruginosa) were used to streak for isolated colonies on rich, non-selective, tryptic soy agar containing 5% sheep's blood (TSAB). Frozen glycerol stocks of laboratory engineered, isogenic E. coli strains, which contain cloned β-lactamase expressing plasmids were used to streak for isolated colonies on rich, selective LB agar supplemented with 25 μg/mL tetracycline to maintain the plasmid. All strains were incubated at 37° C. for 18-24 hrs.
(§3) On the day of testing, primary cultures were started by scraping off 5-10 colonies from the TSAB plates containing clinical strains or the tetracycline supplemented LB plates containing engineered strains. The clinical strain material was suspended in ˜5 mL of cation adjusted Mueller Hinton Broth (CAMHB) in 14 mL culture tubes. The engineered strain material was suspended in CAMHB (supplemented with 25 μg/mL tetracycline) in 14 mL culture tubes. All strains were incubated at 37° C. with aeration (200 rpm) for ˜2 hrs until the optical density at 600 nm (OD600) was >0.1.
(§4) The two compound components of the assay were each diluted in CAMHB and added to the 96-well broth microdilution assay plates. 50 μL of the β-lactam was added to each well of the assay plate in 2-fold dilutions with final concentrations ranging from 128 to 0.13 μg/mL. 25 μL of the BLI compound was added to all wells in the broth microdilution plates at a final concentration of 4 μg/mL. Inoculum cultures were prepared by standardizing the primary cultures to OD600=0.1 and then adding 20 μL of the adjusted primary culture per 1 mL CAMHB for clinical strains or CAMHB (supplemented with tetracycline at 100 μg/mL) for engineered strains, so that the final inoculum density was ˜10^5 colony forming units per milliliter. Diluted inoculum cultures were used to inoculate 25 μl, per well in 96-well broth microdilution assay plates. The final volume of each well was 100 μL and contained a β-lactam at different concentrations, a BLI compound at 4 μg/mL concentration, the bacterial culture at an OD600 of approximately 0.001 and when necessary tetracycline at 25 μg/mL.
(§5) Plates were incubated for 18-20 hours at 37° C. with aeration (200 rpm). Following incubation, growth was confirmed visually placing plates over a viewing apparatus (stand with a mirror underneath) and then OD600 was measured using a SpectraMax 340PC384 plate reader (Molecular Devices, Sunnyvale, Calif.). Growth was defined as turbidity that could be detected with the naked eye or achieving minimum OD600 of 0.1. MIC values were defined as the lowest concentration producing no visible turbidity.
The synergy MIC (sMIC) assay determines the concentration of the BLI required to potentiate the activity of a fixed concentration of a β-lactam antibiotic against β-lactamase producing bacterial strains. […]

[2] = test system: bacterial strains that express KPC β-lactamases; experiment: Synergy MIC / standard BLI potentiation MIC assay, strains expressing KPC β-lactamases; assay type: cell-based; conditions: at least one KPC strain and/or better spectrum; in the presence of a β-lactam
Protocol: as §1, §2, §3, §4, §5
The synergy MIC (sMIC) assay determines the concentration of the BLI required to potentiate the activity of a fixed concentration of a β-lactam antibiotic against β-lactamase producing bacterial strains. The experimental protocol was performed according to Clinical and Laboratory Standards Institute (CLSI) guidelines with modifications as described below (CLSI guidelines can be derived from the CLSI document M07-A9 published in January 2012: “Methods for Dilution Antimicrobial Susceptibility Tests for Bacteria That Grow Aerobically; Approved Standard-Ninth Edition”). […]

[3] = target: KPC-2 β-lactamase (Klebsiella pneumoniae, UniProt Q9F663); experiment: Inhibition kinetics of KPC-2 with nitrocefin as reporter substrate; assay type: biochemical, K. pneumoniae; conditions: KPC-2, 100 μM nitrocefin, 1×PBS pH 7.4, 25° C.
Sequence of KPC-2 β-lactamase (Q9F663 25-293 limits assumed): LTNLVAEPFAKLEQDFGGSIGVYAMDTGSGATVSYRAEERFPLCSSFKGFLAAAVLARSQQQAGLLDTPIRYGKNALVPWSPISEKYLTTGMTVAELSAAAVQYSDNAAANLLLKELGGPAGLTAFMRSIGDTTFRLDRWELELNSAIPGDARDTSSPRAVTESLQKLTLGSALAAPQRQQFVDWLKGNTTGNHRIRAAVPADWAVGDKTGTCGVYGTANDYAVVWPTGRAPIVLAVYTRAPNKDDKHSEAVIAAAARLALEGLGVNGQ
Protocol: Inhibition or inactivation of KPC-2 by test inhibitors was assessed using 100 μM nitrocefin (NCF) as a reporter substrate. Assays were performed in 1×PBS pH 7.4, 0.1 mg/ml BSA, in 96-well half area plates, 50 μl reaction volume. NCF was dissolved in DMSO and diluted in assay buffer. Test inhibitors were dissolved in water or DMSO and serially diluted in the assay with final concentrations between […] The enzyme activity in the presence of varying concentrations of test inhibitor was determined by monitoring the hydrolysis of NCF spectrophotometrically at 486 nm, for 5 minutes, 25° C., using a SpectraMax Plus384 microplate reader with SoftMax Pro software (Molecular Devices). Data analysis was performed using GraphPad Prism (GraphPad Software, Inc.).
Progress curves were fit to a first-order rate decay equation (Eq. 1) to determine kobserved (kobs).
kobs vs. inhibitor concentration [I] curves were then fit to Eq.2 to determine the inhibitor dissociation constant (K) and the first order rate constant of enzyme inactivation at infinite inhibitor concentration (kinact). […] Yt=V0*(1−e^(−kobs^*t))/kobs Eq. 1 Where Y is the absorbance at time t, Vo is the uninhibited enzyme velocity, kobs is the observed rate constant of the enzyme inactivation. kobs=kinact*[I]/([I]+K(1+S/Km)) Eq. 2 Where S is the NCF concentration, Km is the KPC-2 Km for NCF

SMILES | activity against bacterial strains that express OXA-15, compared with Avibactam [1] | activity and/or spectrum of activity against bacterial strains that express KPC β-lactamases, compared with Avibactam [2] | inactivation efficiency (kinact/K) [3]
N=C(N)NCC(O)c1cc([C@@H]2CC[C@@H]3CN2C(=O)N3OS(=O)(=O)O)no1 (single isomer, unassigned) [Compound 611, (2S,5R)-2-(5-((R*)-2-guanidino-1-hydroxyethyl)isoxazol-3-yl)-7-oxo-1,6-diazabicyclo[3.2.1]octan-6-yl hydrogen sulfate] | more active than Avibactam | more active than Avibactam | 
NCCc1cc([C@@H]2CC[C@@H]3CN2C(=O)N3OS(=O)(=O)O)no1 [Compound 602, (2S,5R)-2-(5-(2-aminoethyl)isoxazol-3-yl)-7-oxo-1,6-diazabicyclo[3.2.1]octan-6-yl hydrogen sulfate] |  | more active than Avibactam | 1-99 mM^−s^−1
N=C(N)NCc1cc([C@@H]2CC[C@@H]3CN2C(=O)N3OS(=O)(=O)O)no1 [Compound 603, (2S,5R)-2-(5-(guanidinomethyl)isoxazol-3-yl)-7-oxo-1,6-diazabicyclo[3.2.1]octan-6-yl hydrogen sulfate] | more active than Avibactam | more active than Avibactam | 
N=C(N)NCCc1cc([C@@H]2CC[C@@H]3CN2C(=O)N3OS(=O)(=O)O)no1 [Compound 604, (2S,5R)-2-(5-(2-guanidinoethyl)isoxazol-3-yl)-7-oxo-1,6-diazabicyclo[3.2.1]octan-6-yl hydrogen sulfate] | more active than Avibactam | more active than Avibactam | 
CN(Cc1cc([C@@H]2CC[C@@H]3CN2C(=O)N3OS(=O)(=O)O)no1)C(=N)N [Compound 614, (2S,5R)-2-(5-((1-methylguanidino)methyl)isoxazol-3-yl)-7-oxo-1,6-diazabicyclo[3.2.1]octan-6-yl hydrogen sulfate] | more active than Avibactam | more active than Avibactam | 
N=C(N)N[C@H]1C[C@@H](c2cc([C@@H]3CC[C@@H]4CN3C(=O)N4OS(=O)(=O)O)no2)C1 [Compound 617, (2S,5R)-2-(5-((1s,3R)-3-guanidinocyclobutyl)isoxazol-3-yl)-7-oxo-1,6-diazabicyclo[3.2.1]octan-6-yl hydrogen sulfate] |  | more active than Avibactam | 
O=C1N2C[C@@H](CC[C@H]2c2cc(CC3CNC3)on2)N1OS(=O)(=O)O [Compound 618, (2S,5R)-2-(5-(azetidin-3-ylmethyl)isoxazol-3-yl)-7-oxo-1,6-diazabicyclo[3.2.1]octan-6-yl hydrogen sulfate] | more active than Avibactam | more active than Avibactam | 
NCCNCCc1cc([C@@H]2CC[C@@H]3CN2C(=O)N3OS(=O)(=O)O)no1 [Compound 620, (2S,5R)-2-(5-(2-((2-aminoethyl)amino)ethyl)isoxazol-3-yl)-7-oxo-1,6-diazabicyclo[3.2.1]octan-6-yl hydrogen sulfate] |  | more active than Avibactam | 
N=C(N)NCCNCCc1cc([C@@H]2CC[C@@H]3CN2C(=O)N3OS(=O)(=O)O)no1 [Compound 621, (2S,5R)-2-(5-(2-((2-guanidinoethyl)amino)ethyl)isoxazol-3-yl)-7-oxo-1,6-diazabicyclo[3.2.1]octan-6-yl hydrogen sulfate] |  | more active than Avibactam | 
O=C1N2C[C@@H](CC[C@H]2c2cc(CNC3CNC3)on2)N1OS(=O)(=O)O [Compound 622, (2S,5R)-2-(5-((azetidin-3-ylamino)methyl)isoxazol-3-yl)-7-oxo-1,6-diazabicyclo[3.2.1]octan-6-yl hydrogen sulfate] |  | more active than Avibactam | 
O=C1N2C[C@@H](CC[C@H]2c2cc(CCNC3CNC3)on2)N1OS(=O)(=O)O [Compound 623, (2S,5R)-2-(5-(2-(azetidin-3-ylamino)ethyl)isoxazol-3-yl)-7-oxo-1,6-diazabicyclo[3.2.1]octan-6-yl hydrogen sulfate] |  | more active than Avibactam | 
O=C1N2C[C@@H](CC[C@H]2c2cc(COC3CNC3)on2)N1OS(=O)(=O)O [Compound 624, (2S,5R)-2-(5-((azetidin-3-yloxy)methyl)isoxazol-3-yl)-7-oxo-1,6-diazabicyclo[3.2.1]octan-6-yl hydrogen sulfate] |  | more active than Avibactam | 
O=C1N2C[C@@H](CC[C@H]2c2cc(CC3CCNCC3)on2)N1OS(=O)(=O)O [Compound 627, (2S,5R)-7-oxo-2-(5-(piperidin-4-ylmethyl)isoxazol-3-yl)-1,6-diazabicyclo[3.2.1]octan-6-yl hydrogen sulfate] |  | more active than Avibactam | 

Reference: patent US8927724B2, “Isoxazole beta-lactamase inhibitors” (priority 2012, dated 2015)
